Legend:
Type in all cases: in vivo
[1] = tested on: Myzus persicae (Green Peach Aphid); test: Myzus persicae, sunflower leaf disc spray test; conditions: foliar, 144 h, sprayed sunflower leaf discs, aphid population of mixed ages, mortality after 6 DAT
Description: Sunflower leaf discs were placed on agar in a 24-well microtiter plate and sprayed with test solutions at an application rate of 200 ppm. After drying, the leaf discs were infested with an aphid population of mixed ages. After an incubation period of 6 DAT, samples were checked for mortality.

[2] = tested on: Thrips tabaci (Onion Thrips); test: Thrips tabaci, sunflower leaf disc spray test; conditions: foliar, 168 h, sprayed sunflower leaf discs, mortality after 7 days
[3] = tested on: Diabrotica balteata (Corn Root Worm); test: Diabrotica balteata, artificial diet MTP test; conditions: 120 h, 200 ppm (concentration in well 18 ppm), L2 larvae, larval mortality after 5 days
Description: A 24-well microtiter plate (MTP) with artificial diet was treated with test solutions at an application rate of 200 ppm (concentration in well 18 ppm) by pipetting. After drying, the MTP's were infested with L2 larvae (6-10 per well). After an incubation period of 5 days, samples were checked for larval mortality The following compound gave at least 80% control of Diabrotica balteata: 1, 2, 3, 4, 5, 6, 7, 8, 9, 10, 11, 12, 13, 14, 15, 16, 17, 18, 19, 20, 21, 22, 23, 24, 25, 26, 27, 28, 29, 30, 31, 32, 33, 34, 35, 36, 37, 38, 39, 40, 41, 42, 43, 44, 45, 46, 47, 48, 49, 50, 51.

[4] = tested on: Spodoptera littoralis (Egyptian Cotton Leaf Worm); test: Spodoptera littoralis, agar / lettuce root uptake test; conditions: 144 h, mixed with agar, uptake by lettuce roots, mortality 6 days after infestation
Excerpt: Test compounds were applied by pipette into 24 well plates and mixed with agar. Application rate: 12.5 ppm. Lettuce seeds were placed on the agar and the multi well plate is closed by another plate which contains also agar. After 7 days the roots have absorbed the compound and the lettuce has grown into the lid plate. The lettuce leafs were now cut off into the lid plate. Spodoptera eggs were pipetted through a plastic stencil on a humid gel blotting paper and the plate closed with it. The samples are checked for mortality 6 days after infestation.

[5] = tested on: Spodoptera littoralis (Egyptian Cotton Leafworm); test: Spodoptera littoralis, cotton leaf disc spray test; conditions: foliar, 72 h, sprayed cotton leaf discs, L1 larvae, 3 days after treatment
Excerpt: Cotton leaf discs were placed on agar in a 24-well microtiter plate and sprayed with test solutions at an application rate of 200 ppm. After drying, the leaf discs were infested with 5 L1 larvae. The samples were checked for mortality 3 days after treatment (DAT).

[6] = tested on: Plutella xylostella (Diamond Back Moth); test: Plutella xylostella, artificial diet MTP test; conditions: 144 h, 200 ppm (concentration in well 18 ppm), L2 larvae, 6 days
Description: 24-well microtiter plate (MTP) with artificial diet was treated with test solutions at an application rate of 200 ppm (concentration in well 18 ppm) by pipetting. After drying, the MTP's were infested with L2 larvae (7-12 per well). After an incubation period of 6 days, samples were checked for larval mortality and growth regulation. The following compound gave at least 80% mortality of Plutella xylostella: 1, 2, 3, 4, 5, 6, 7, 8, 9, 10, 11, 12, 13, 14, 15, 16, 17, 18, 19, 20, 21, 22, 23, 24, 25, 26, 27, 28, 29, 30, 31, 32, 33, 34, 35, 36, 37, 38, 39, 40, 41, 42, 43, 44, 45, 46, 47, 48, 49, 50.

[7] = tested on: Tetranychus urticae (Two-Spotted Spider Mite); test: Tetranychus urticae, bean leaf disc spray test; conditions: foliar, 192 h, sprayed bean leaf discs, mite populations of mixed ages, 8 days
Excerpt: Bean leaf discs on agar in 24-well microtiter plates were sprayed with test solutions at an application rate of 200 ppm. After drying, the leaf discs are infested with mite populations of mixed ages. 8 days later, discs were checked for mortality.

[8] = tested on: Myzus persicae (Green Peach Aphid); test: Myzus persicae, sucrose solution / Parafilm test; conditions: 120 h, mixed with sucrose solution under Parafilm, mortality 5 days after infestation
Excerpt: Test compounds were applied by pipette into 24 well plates and mixed with Sucrose solution. Application rate: 12.5 ppm. The plates were closed with a stretched Parafilm. A plastic stencil with 24 holes is placed onto the plate and infested pea seedlings were placed directly on the Parafilm. The infested plate is closed with a gel blotting paper and another plastic stencil and then turned upside down. 5 days after infestation the samples were checked on mortality.

CCN(C(=O)c1ccc(C#N)cc1)c1cccc(C(=O)Nc2c(Cl)cc(C(F)(C(F)(F)F)C(F)(F)Br)cc2Br)c1OC (centres unmarked) [Compound 1, N-[2-bromo-4-[1-[bromo(difluoro)methyl]-1,2,2,2-tetrafluoro-ethyl]-6-chloro-phenyl]-3-[(4-cyanobenzoyl)-ethyl-amino]-2-methoxy-benzamide]
≥ 80%: pest or weed control at 200 ppm [1] | pest or weed control at 200 ppm [2] | pest or weed control at 200 ppm [3] | pest or weed control at 12.5 ppm [4] | mortality at 200 ppm [5] | mortality at 200 ppm [6] | mortality at 200 ppm [7] | pest or weed control at 12.5 ppm [8]

CCN(C(=O)c1ccncc1)c1cccc(C(=O)Nc2c(Cl)cc(C(F)(C(F)(F)F)C(F)(F)Br)cc2Br)c1OC (centres unmarked) [Compound 2, N-[3-[[2-bromo-4-[1-[bromo(difluoro)methyl]-1,2,2,2-tetrafluoro-ethyl]-6-chloro-phenyl]carbamoyl]-2-methoxy-phenyl]-N-ethyl-pyridine-4-carboxamide]
≥ 80%: pest or weed control at 200 ppm [1] | pest or weed control at 200 ppm [2] | pest or weed control at 200 ppm [3] | pest or weed control at 12.5 ppm [4] | mortality at 200 ppm [5] | mortality at 200 ppm [6] | mortality at 200 ppm [7] | pest or weed control at 12.5 ppm [8]

COc1c(NC(=O)c2ccncc2)cccc1C(=O)Nc1c(Cl)cc(C(F)(C(F)(F)F)C(F)(F)Br)cc1Br (centres unmarked) [Compound 3, N-[3-[[2-bromo-4-[1-[bromo(difluoro)methyl]-1,2,2,2-tetrafluoro-ethyl]-6-chloro-phenyl]carbamoyl]-2-methoxy-phenyl]pyridine-4-carboxamide]
≥ 80%: pest or weed control at 200 ppm [1] | pest or weed control at 200 ppm [2] | pest or weed control at 200 ppm [3] | pest or weed control at 12.5 ppm [4] | mortality at 200 ppm [5] | mortality at 200 ppm [6] | mortality at 200 ppm [7] | pest or weed control at 12.5 ppm [8]

O=C(Nc1cccc(C(=O)Nc2c(Br)cc(C(F)(C(F)(F)F)C(F)(F)Br)cc2OC(F)F)c1F)c1ccncc1 (centres unmarked) [Compound 4]
≥ 80%: pest or weed control at 200 ppm [1] | pest or weed control at 200 ppm [2] | pest or weed control at 200 ppm [3] | pest or weed control at 12.5 ppm [4] | mortality at 200 ppm [5] | mortality at 200 ppm [6] | mortality at 200 ppm [7] | pest or weed control at 12.5 ppm [8]

N#Cc1ccc(C(=O)Nc2cccc(C(=O)Nc3c(Br)cc(C(F)(C(F)(F)F)C(F)(F)Br)cc3OC(F)F)c2F)cc1 (centres unmarked) [Compound 5]
≥ 80%: pest or weed control at 200 ppm [1] | pest or weed control at 200 ppm [2] | pest or weed control at 200 ppm [3] | pest or weed control at 12.5 ppm [4] | mortality at 200 ppm [5] | mortality at 200 ppm [6] | mortality at 200 ppm [7] | pest or weed control at 12.5 ppm [8]

O=C(Nc1cccc(C(=O)Nc2c(Br)cc(C(F)(C(F)(F)F)C(F)(F)Br)cc2OC(F)F)c1F)c1cc[n+]([O-])cc1 (centres unmarked) [Compound 6]
≥ 80%: pest or weed control at 200 ppm [1] | pest or weed control at 200 ppm [2] | pest or weed control at 200 ppm [3] | pest or weed control at 12.5 ppm [4] | mortality at 200 ppm [5] | mortality at 200 ppm [6] | mortality at 200 ppm [7] | pest or weed control at 12.5 ppm [8]

CCN(C(=O)c1ccncc1)c1cccc(C(=O)Nc2c(Br)cc(C(F)(C(F)(F)F)C(F)(F)Br)cc2OC(F)F)c1F (centres unmarked) [Compound 7]
≥ 80%: pest or weed control at 200 ppm [1] | pest or weed control at 200 ppm [2] | pest or weed control at 200 ppm [3] | pest or weed control at 12.5 ppm [4] | mortality at 200 ppm [5] | mortality at 200 ppm [6] | mortality at 200 ppm [7] | pest or weed control at 12.5 ppm [8]

CCN(C(=O)c1ccc(C#N)cc1)c1cccc(C(=O)Nc2c(Br)cc(C(F)(C(F)(F)F)C(F)(F)Br)cc2OC(F)F)c1F (centres unmarked) [Compound 8]
≥ 80%: pest or weed control at 200 ppm [1] | pest or weed control at 200 ppm [2] | pest or weed control at 200 ppm [3] | pest or weed control at 12.5 ppm [4] | mortality at 200 ppm [5] | mortality at 200 ppm [6] | mortality at 200 ppm [7] | pest or weed control at 12.5 ppm [8]

CCN(C(=O)c1ccncc1)c1cccc(C(=O)Nc2c(Br)cc(C(F)(C(F)(F)F)C(F)(F)Br)cc2OC(F)F)c1OC (centres unmarked) [Compound 9]
≥ 80%: pest or weed control at 200 ppm [1] | pest or weed control at 200 ppm [2] | pest or weed control at 200 ppm [3] | pest or weed control at 12.5 ppm [4] | mortality at 200 ppm [5] | mortality at 200 ppm [6] | mortality at 200 ppm [7] | pest or weed control at 12.5 ppm [8]

CCN(C(=O)c1ccc(C#N)cc1)c1cccc(C(=O)Nc2c(Br)cc(C(F)(C(F)(F)F)C(F)(F)Br)cc2OC(F)F)c1OC (centres unmarked) [Compound 10]
≥ 80%: pest or weed control at 200 ppm [1] | pest or weed control at 200 ppm [2] | pest or weed control at 200 ppm [3] | pest or weed control at 12.5 ppm [4] | mortality at 200 ppm [5] | mortality at 200 ppm [6] | mortality at 200 ppm [7] | pest or weed control at 12.5 ppm [8]

O=C(Nc1cccc(C(=O)Nc2c(Br)cc(C(F)(C(F)(F)F)C(F)(F)Cl)cc2OC(F)F)c1F)c1ccncc1 (centres unmarked) [Compound 11]
≥ 80%: pest or weed control at 200 ppm [1] | pest or weed control at 200 ppm [2] | pest or weed control at 200 ppm [3] | pest or weed control at 12.5 ppm [4] | mortality at 200 ppm [5] | mortality at 200 ppm [6] | mortality at 200 ppm [7] | pest or weed control at 12.5 ppm [8]

O=C(Nc1cccc(C(=O)Nc2c(Br)cc(C(F)(C(F)(F)F)C(F)(F)Cl)cc2OC(F)F)c1F)c1cccnc1 (centres unmarked) [Compound 12]
≥ 80%: pest or weed control at 200 ppm [1] | pest or weed control at 200 ppm [2] | pest or weed control at 200 ppm [3] | pest or weed control at 12.5 ppm [4] | mortality at 200 ppm [5] | mortality at 200 ppm [6] | mortality at 200 ppm [7] | pest or weed control at 12.5 ppm [8]

N#Cc1ccc(C(=O)Nc2cccc(C(=O)Nc3c(Br)cc(C(F)(C(F)(F)F)C(F)(F)Cl)cc3OC(F)F)c2F)cc1 (centres unmarked) [Compound 13]
≥ 80%: pest or weed control at 200 ppm [1] | pest or weed control at 200 ppm [2] | pest or weed control at 200 ppm [3] | pest or weed control at 12.5 ppm [4] | mortality at 200 ppm [5] | mortality at 200 ppm [6] | mortality at 200 ppm [7] | pest or weed control at 12.5 ppm [8]

COc1c(NC(=O)c2ccncc2)cccc1C(=O)Nc1c(Br)cc(C(F)(C(F)(F)F)C(F)(F)Cl)cc1OC(F)F (centres unmarked) [Compound 14]
≥ 80%: pest or weed control at 200 ppm [1] | pest or weed control at 200 ppm [2] | pest or weed control at 200 ppm [3] | pest or weed control at 12.5 ppm [4] | mortality at 200 ppm [5] | mortality at 200 ppm [6] | mortality at 200 ppm [7] | pest or weed control at 12.5 ppm [8]

COc1c(NC(=O)c2cccnc2)cccc1C(=O)Nc1c(Br)cc(C(F)(C(F)(F)F)C(F)(F)Cl)cc1OC(F)F (centres unmarked) [Compound 15]
≥ 80%: pest or weed control at 200 ppm [1] | pest or weed control at 200 ppm [2] | pest or weed control at 200 ppm [3] | pest or weed control at 12.5 ppm [4] | mortality at 200 ppm [5] | mortality at 200 ppm [6] | mortality at 200 ppm [7] | pest or weed control at 12.5 ppm [8]

COc1c(NC(=O)c2ccc(C#N)cc2)cccc1C(=O)Nc1c(Br)cc(C(F)(C(F)(F)F)C(F)(F)Cl)cc1OC(F)F (centres unmarked) [Compound 16]
≥ 80%: pest or weed control at 200 ppm [1] | pest or weed control at 200 ppm [2] | pest or weed control at 200 ppm [3] | pest or weed control at 12.5 ppm [4] | mortality at 200 ppm [5] | mortality at 200 ppm [6] | mortality at 200 ppm [7] | pest or weed control at 12.5 ppm [8]
